# Experimental data taken from US7759510B2, “Platinum complexes and methods of use” (University of South Florida, priority 2003, dated 2010).
# Where two headings read alike, the source gives them in different places.
# Columns and labels:
# A549 cells = test: MTT assay, percent survival of A549 cells; assay type: cell-based; settings: A549; for IC50: Table 2, read-out: Calculated IC 50 (uM concentration)
# Method: 1. Prepare a suspension of A549 cells at 2×10^5 cells per mL in supplemented DMEM/F12 growth medium.
# 2. Plate 2×10^4 cells per well in a 96 well cell culture plate by adding 100 μL of stock suspension to each well.
# 3. For each platinum compound (already in solution), prepare a readily usable stock solution in DMEM/F12 medium.
# 4. For each compound generate triplicate trials of 0, 10, 20, 30, 40, 50, 60, and 70 μM concentration. This is achieved in situ by adding appropriate volumes of stock solution to each well along with the volume of untreated medium necessary to generate the desired concentration in a final volume of 200 μL.
# 5. Gently agitate plates to mix contents. Incubate at 37° C., 7% CO2 for 45 hours.
# 6. Add 20 μL of 5 mg/mL MTT solution (in PBS) to each well.
# 7. Gently agitate plates to mix contents and incubate an additional 3 hours to allow product development.
# 8. Remove plates from incubator and agitate to cause settling of formazan product.
# 9. Aspirate out liquid contents of each well using needle and syringe and discard.
# 10. Add 200 μL DMSO to each well to dissolve formazan product.
# 11. Agitate plates until all of the formazan product is in solution and no purple crystals remain on the bottom surface of the wells.
# 12. Read the absorbance of each well at […] using Varian software for Cary 50 UV-vis Spectrophotometer with fiber optic probe accessory.
# (§1) MTT assays are used for the quantitative determination of cellular proliferation and activation and for the quantitation of in vitro tumor cell sensitivity to anti-cancer compounds. The assay is based on the cleavage of the yellow tetrazolium salt MTT into purple colored formazan by metabolically active cells. Solubilized formazan product can be photometrically quantitated using an ELISA plate reader. A decrease in the number of living cells results in a decrease in total metabolic activity which leads to a decrease in color formation. Platinum complexes of the present invention were tested in MTT assays using A549 cells to determine anti-cancer cell activity. […] FIGS. 1, 2, and 4 show percent survival versus platinum complex concentration in graphical form.
# as §1, with “FIGS. 8, 9,” for “FIGS. 1, 2,”, “and 11” for “and 4”
# Stat3 = target: T1, Stat3 (Mus musculus, UniProt P42227); test: EMSA of nuclear extracts, Stat3 DNA-binding activity to hSIE probe; assay type: biochemical; settings: in vitro
# T1 construct: Nuclear extracts were prepared from NIH3T3/hEGFR cell that overexpress human epidermal growth factor (EGF) receptor and stimulated with EGF; endogenous in cells; host or cells: NIH3T3/hEGFR fibroblasts, EGF-stimulated (6 ng/ml, 15 min), nuclear extract
# T1 sequence (P42227 whole entry): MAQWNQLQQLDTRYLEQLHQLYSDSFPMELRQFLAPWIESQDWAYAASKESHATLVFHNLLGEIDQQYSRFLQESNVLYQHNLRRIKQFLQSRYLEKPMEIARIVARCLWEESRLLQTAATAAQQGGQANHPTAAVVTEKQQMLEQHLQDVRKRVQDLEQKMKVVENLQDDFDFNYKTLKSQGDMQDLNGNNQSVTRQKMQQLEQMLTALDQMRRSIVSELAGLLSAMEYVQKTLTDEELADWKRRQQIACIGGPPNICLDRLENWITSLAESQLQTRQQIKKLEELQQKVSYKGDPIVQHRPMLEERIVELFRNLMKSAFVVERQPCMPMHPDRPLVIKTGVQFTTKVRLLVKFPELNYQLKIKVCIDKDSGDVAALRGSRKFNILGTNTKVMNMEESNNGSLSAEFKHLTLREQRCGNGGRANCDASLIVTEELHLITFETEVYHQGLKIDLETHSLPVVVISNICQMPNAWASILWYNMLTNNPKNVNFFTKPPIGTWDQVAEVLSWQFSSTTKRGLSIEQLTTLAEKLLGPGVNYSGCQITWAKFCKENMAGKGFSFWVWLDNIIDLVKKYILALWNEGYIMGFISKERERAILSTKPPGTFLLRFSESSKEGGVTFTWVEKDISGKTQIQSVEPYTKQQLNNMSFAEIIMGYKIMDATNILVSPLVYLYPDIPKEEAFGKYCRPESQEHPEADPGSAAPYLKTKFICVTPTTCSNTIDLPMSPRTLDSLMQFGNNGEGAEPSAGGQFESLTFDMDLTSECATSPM
# Method: Nuclear Extract Preparation and Analysis by EMSA of HK-Designated Platinum Complexes.
# Nuclear extracts were prepared from NIH3T3/hEGFR cell that overexpress human epidermal growth factor (EGF) receptor and stimulated with EGF (6 ng/ml) for 15 min. Nuclear extracts were pre-incubated with compounds for 30 min at room temperature prior to incubation with radiolabeled probe. The ^32P-labeled oligonucleotide probe used is hSIE (high affinity sis-inducible element, m67 variant, 5′-[…]-3′) (SEQ ID NO:1) that binds both Stat1 and Stat3.
# Other platinum (IV) complexes were evaluated for inhibitory activity against STAT DNA-binding in vitro.
# [1] = linear trend from percent survival vs. concentration data of Table 1
# [2] = extrapolated from incomplete data (10-40 uM; CPA-31 10-30 μM), outside the measured range
Structure (SMILES),"Average Absorbance (A549 cells; Table 1, 10 μM)","Percent Survival (A549 cells; Table 1, 10 μM) [%]","Average Absorbance (A549 cells; Table 1, 20 μM)","Percent Survival (A549 cells; Table 1, 20 μM) [%]","Average Absorbance (A549 cells; Table 1, 30 μM)","Percent Survival (A549 cells; Table 1, 30 μM) [%]","Average Absorbance (A549 cells; Table 1, 40 μM)","Percent Survival (A549 cells; Table 1, 40 μM) [%]","Average Absorbance (A549 cells; Table 3, 10 μM)","Percent Survival (A549 cells; Table 3, 10 μM) [%]","Average Absorbance (A549 cells; Table 3, 20 μM)","Percent Survival (A549 cells; Table 3, 20 μM) [%]","Average Absorbance (A549 cells; Table 3, 30 μM)","Percent Survival (A549 cells; Table 3, 30 μM) [%]","Average Absorbance (A549 cells; Table 3, 40 μM)","Percent Survival (A549 cells; Table 3, 40 μM) [%]","Average Absorbance (A549 cells; Table 3, 50 μM)","Percent Survival (A549 cells; Table 3, 50 μM) [%]","Average Absorbance (A549 cells; Table 3, 60 μM)","Percent Survival (A549 cells; Table 3, 60 μM) [%]",also measured
[NH2][Pt]([NH2])([Cl])([Cl])([N+](=O)[O-])[o+]1c2cc(=O)ccc-2c(-c2ccccc2C(=O)O)c2ccc(O)cc21 [CPA-39],2.5313,107.2085,2.4307,102.9478,2.3599,99.9492,1.9611,83.0587,2.6556,108.7069,2.4616,100.7655,2.0894,85.5295,1.3568,55.5405,0.6566,26.8779,0.6086,24.9130,"Average Absorbance (A549 cells; Table 1, 50 μM): 1.0318; Percent Survival (A549 cells; Table 1, 50 μM): 43.7000%; Average Absorbance (A549 cells; Table 1, 60 μM): 0.7776; Percent Survival (A549 cells; Table 1, 60 μM): 32.9338%; Average Absorbance (A549 cells; Table 1, 70 μM): 0.9798; Percent Survival (A549 cells; Table 1, 70 μM): 41.4976%; IC50 (A549 cells; [1]): 56.4 µM; Average Absorbance (A549 cells; Table 3, 70 μM): 0.6166; Percent Survival (A549 cells; Table 3, 70 μM): 25.2405%; Disruption of Stat3 activity / ability to bind its consensus binding sequence (Stat3): strongly disrupt Stat3 activity"
[NH2][Pt]([NH2])([Cl])([Cl])[N+](=O)[O-].c1ccc(-c2oc(-c3ccccc3)c3ccccc23)cc1 [CPA-41],2.3706,100.4024,2.3827,100.9148,2.1124,89.4668,0.8648,36.6270,2.4500,100.2906,2.3805,97.4457,1.4686,60.1171,0.4210,17.2336,0.3647,14.9290,0.5549,22.7148,"IC50 (A549 cells; [2]): 40.7 µM; Average Absorbance (A549 cells; Table 3, 70 μM): 0.5445; Percent Survival (A549 cells; Table 3, 70 μM): 22.2891%; Disruption of Stat3 activity / ability to bind its consensus binding sequence (Stat3): strongly disrupt Stat3 activity"
N[N](c1cc([N+](=O)[O-])cc([N+](=O)[O-])c1)[Pt]([NH2])([NH2])([Cl])([Cl])[N+](=O)[O-] [CPA-43],2.4150,102.2828,1.8554,78.5820,2.1451,90.8517,1.3030,55.1861,2.5840,105.7759,2.2922,93.8311,1.4833,60.7188,0.6479,26.5218,0.4641,18.9979,0.6504,26.6241,"IC50 (A549 cells; [2]): 49.6 µM; Average Absorbance (A549 cells; Table 3, 70 μM): 0.5059; Percent Survival (A549 cells; Table 3, 70 μM): 20.7090%; Disruption of Stat3 activity / ability to bind its consensus binding sequence (Stat3): strongly disrupt Stat3 activity"
CCN(CC)c1ccc2c(-c3ccccc3C(=O)O)c3ccc(=[N+](CC)CC)cc-3[o+]([Pt]([NH2])([NH2])([Cl])([Cl])[N+](=O)[O-])c2c1.[Cl-] [CPA-46],2.4032,101.7831,2.2978,97.3190,2.2671,96.0188,1.8618,78.8531,2.5773,105.5017,2.4118,98.7269,1.9637,80.3840,1.2044,49.3021,0.6282,25.7153,0.6446,26.3867,"Average Absorbance (A549 cells; Table 1, 50 μM): 1.0285; Percent Survival (A549 cells; Table 1, 50 μM): 43.5602%; Average Absorbance (A549 cells; Table 1, 60 μM): 0.7041; Percent Survival (A549 cells; Table 1, 60 μM): 29.8208%; IC50 (A549 cells; [1]): 52.9 µM; Average Absorbance (A549 cells; Table 3, 70 μM): 0.6165; Percent Survival (A549 cells; Table 3, 70 μM): 25.2364%; Disruption of Stat3 activity / ability to bind its consensus binding sequence (Stat3): strongly disrupt Stat3 activity"
